Test results published in PMC13313556, “Development and characterization of triazole-based WDR5 inhibitors for the treatment of glioblastoma” (JCI Insight, 2026).
Like-named read-outs stand apart in the source and are kept apart here.

Tests used:
L2 CSCs = assay: 7-day CTG viability assay (GI50, cross-titrations, irradiation) in L2; type: cell-based, human; conditions: for GI50: Homo sapiens
Method: (§1) For GI50 determination, compounds were stamped in technical triplicate, while for synergy cross-titrations dose-response matrices were prepared in technical duplicate. Different CSC lines, grown in suspension as spheroids, were split with Accutase and seeded directly on top of the prestamped compounds (50 μL of NBMc and 700 cells/well). The outer 4 rows (A,B and O,P row IDs) and 4 columns (1,2 and 23,24 column IDs) were filled with 80 μL of PBS to minimize evaporation. Cells were incubated with compounds for 7 days at 37°C/5% CO2 prior to the addition of 25 μL/well Cell-Titer Glo (Promega) and luminescence quantification on a Revvity EnVision plate reader. […] For the cross-titrations of 2 compounds, synergy scores were calculated using the MuSyC webserver ([79]). […]
(§2) antagonist (p53 activator) RG7112 following either 0 Gy or 2 Gy irradiation. Mean values are presented from a single biological replicate conducted in technical triplicate. Follow- […]
(§3) Cell viability was quantified as described in the Materials and Methods four days post-irradiation (seven days total). The

[1] = Plasma protein binding (equilibrium dialysis), human; type: in vitro ADME
Method: Plasma Protein and Brain Homogenate Binding: Plasma protein binding assays in human and rat plasma were performed using equilibrium dialysis method and a fast gradient elution LC-MS/MS to estimate the percent of compound which binds to protein over a 4.5 hour incubation period at 37 °C, while undergoing orbital shaking. Assay was performed using a HT dialysis micro equilibrium device using dialysis membrane strips. A time 0 sample was taken after protein matrix is created and samples were taken from […]
both the protein side and buffer side of the membrane after incubation and the parent compound was quantified. Brain homogenate binding was performed similarly as above using human brain homogenate, equilibrium dialysis, and LC-MS/MS methods. Fraction unbound is calculated by dividing the concentration of the buffer side by the concentration of the matrix side (plasma or brain). […]

L1 CSCs = assay: 7-day CTG viability assay (GI50, cross-titrations, irradiation) in L1; type: cell-based, human; conditions: for GI50: Homo sapiens; for log(GI50): L1 + RAD (2 Gy)
Method: as §1, §2, §3

[2] = Microsomal intrinsic clearance, rat; type: in vitro ADME; conditions: for CLint scaled at 1 µM: pooled liver microsomes, rat microsomes; for Pred CLhep (r): scaled predicted hepatic clearance, rat
Method: (§4) SUPPLEMENTAL DMPK METHODS
(§5) All in vitro DMPK screening assays were performed at Q2 Solutions, Inc. (Indianapolis,
(§6) IN, USA). Microsomal Intrinsic Clearance: Test compounds (1 µM) were incubated
(§7) with 1 mg/mL of pooled liver microsomes in phosphate buffer at 37 °C. Samples were
(§8) taken at 0, 5, 10, 15, 30 and 45 min and analyzed by LC-MS. Testosterone was used as
(§9) the positive control. Two replicates were obtained and average CLint values are reported. […]

WDR5 = WDR5 (Homo sapiens, UniProt P61964); assay: WDR5 TR-FRET binding assay (displacement of labeled WIN-site peptide); set-up: human WDR5 residues Ser22-Cys334 were codon optimized for E. coli; made in house; host or cells: E. coli T7 Express lysY/Iq (New England Biolabs), pET27 plasmid
Method: Recombinant human WDR5 was cloned, expressed, and purified as previously described ([37]). Briefly, human WDR5 residues Ser22-Cys334 were codon optimized for E. coli and cloned into a pET27 plasmid downstream of a SUMO-protease cleavable NT-His6-SUMO fusion. […] Induced cultures were pelleted; resuspended in 1X PBS pH 7.4, 300 mM NaCl, 20 mM imidazole, 5 mM β-Me, and 10% glycerol; and lysed via sonication. […] His-SUMO-WDR5 used in the TR-FRET assay was further purified via size exclusion chromatography using 1X PBS pH 7.4, 300 mM NaCl, 5 mM β-Me running buffer, concentrated to 1–2 mg/mL, aliquoted, and froze at –80°C for storage. Tag free WDR5 used for crystallography was dialyzed overnight with SUMO protease and passed over an NiNTA column to remove the His6-SUMO tag. Tag free WDR5 was further purified via size exclusion chromatography using 20 mM HEPES pH 7.0, 250 mM NaCl, and 5 mM DTT; concentrated to 10 mg/mL; aliquoted; and frozen at –80°C for storage.
Inhibitor Ki values were measured using a previously published competitive TR-FRET assay ([37]). […] The reported Ki values were calculated from at least 3 biological replicates completed in technical quadruplicate.

[3] = Microsomal intrinsic clearance, human; type: in vitro ADME; conditions: for CLint scaled at 1 µM: pooled liver microsomes, human microsomes; for Pred CLhep (h): scaled predicted hepatic clearance, human
Method: as §4, §5, §6, §7, §8, §9

[4] = MDCK passive permeability; type: in vitro ADME, canine; conditions: dog, MDCK
L0 CSCs = assay: 7-day CTG viability assay (GI50, cross-titrations) in L0; type: cell-based; conditions: Homo sapiens; L0, 7-day CTG; pGI50 = −log10[GI50(M)]
Method: For GI50 determination, compounds were stamped in technical triplicate, while for synergy cross-titrations dose-response matrices were prepared in technical duplicate. Different CSC lines, grown in suspension as spheroids, were split with Accutase and seeded directly on top of the prestamped compounds (50 μL of NBMc and 700 cells/well). The outer 4 rows (A,B and O,P row IDs) and 4 columns (1,2 and 23,24 column IDs) were filled with 80 μL of PBS to minimize evaporation. Cells were incubated with compounds for 7 days at 37°C/5% CO2 prior to the addition of 25 μL/well Cell-Titer Glo (Promega) and luminescence quantification on a Revvity EnVision plate reader. […] For the cross-titrations of 2 compounds, synergy scores were calculated using the MuSyC webserver ([79]).

3832 CSCs = assay: 7-day CTG viability assay (GI50, cross-titrations, irradiation) in 3832; type: cell-based, human
Method: as §1, §2, §3

[5] = L2, 0 Gy, read-out: log(GI50) (converted)
[6] = L2, 7-day CTG, pGI50 = −log10[GI50(M)], read-out: pGI50 (converted)
[7] = human plasma, read-out: PPB % fu (h)
[8] = summary of Table 1, read-out: free fraction
[9] = L1, 0 Gy, read-out: log(GI50) (converted)
[10] = L1, 7-day CTG, pGI50 = −log10[GI50(M)], read-out: pGI50 (converted)
[11] = Homo sapiens, 3832 + RAD (2 Gy), read-out: log(GI50) (converted)
[12] = Homo sapiens, […], 3832, 7-day CTG, pGI50 = −log10[GI50(M)], read-out: pGI50 (converted)
[13] = Homo sapiens, 3832, 0 Gy, read-out: log(GI50) (converted)

SMILES | GI50 (L2 CSCs; [5]) [M] | GI50 (L2 CSCs; [6]) [M] | fraction unbound at […] [1, 7] | fraction unbound at […] [1, 8] | GI50 (L1 CSCs; [9]) [M] | GI50 (L1 CSCs; [10]) [M] | log(GI50) (L1 CSCs) [M] | CLint scaled at 1 µM [2] [mL/min/kg] | Pred CLhep (r) [2] [mL/min/kg] | Ki (WDR5) [pM] | CLint scaled at 1 µM [3] [mL/min/kg] | Pred CLhep (h) [3] [mL/min/kg] | Papp A→B [4] [×10⁻⁶ cm/s] | Papp A→B ([4]; favorable permeability) [×10⁻⁶ cm/s] | GI50 (L0 CSCs) [M] | GI50 (3832 CSCs; [11]) [M] | GI50 (3832 CSCs; [12]) [M] | GI50 (3832 CSCs; [13]) [M] | other results
COc1cc(Cn2nnc3c2CCc2c(-c4cn(C)nc4C(F)(F)F)cc(Cn4ccnc4C)cc2-3)cc(OC)c1 [C3TD078] | 5.01e-06 | 3.98e-06 | 0.016 | ~0.02 | 5.01e-06 | 5.01e-06 | -5.3 | 316 | 63.1 | 30 ± 2 | 1200 | 20.6 | 4.9 | > 2 | 1.26e-06 | 1.26e-06 | 2e-06 |  | 
COc1cc(Cn2nnc3c2CCc2c-3cc(Cn3ccnc3C)cc2C2CC2)ccc1F [C3TD343] |  | 6.31e-06 | 0.007 | ~0.02 | 7.94e-06 | 8.32e-06 | -5.1 | 378 | 64.1 | 5900 ± 300 | 710 | 20.3 | 5.2 | > 2 | 5.5e-06 | 3.16e-06 | 2.51e-06 | 3.16e-06 | GI50 (L2 CSCs; L2 + RAD (2 Gy), read-out: log(GI50) (converted)): 7.94e-06 M
COc1cc(CN2CCc3c(cc(Cn4ccn(C)c4=N)cc3-c3ccc(F)cc3C)C2=O)cc(OC)c1 [C16, reference compound] | 2e-06 | 3.98e-06 | 0.003 |  | 1.26e-05 | 1.26e-05 | -4.9 | < 9.2 | < 14.7 | 30 ± 10 | 155 | 18.3 | 0.1 |  | 5.01e-07 |  |  | 1e-06 | log(GI50) (L2 CSCs; L2 + RAD (2 Gy)): -5.7 M; fraction unbound at […] ([1]; summary of Table 1, read-out: plasma protein binding): < 0.01; log(GI50) (3832 CSCs; 3832 + RAD (2 Gy)): -6.0 M; GI50 (3832 CSCs; Homo sapiens, 3832, 7-day CTG, pGI50 = −log10[GI50(M)], read-out: pGI50 (converted)): 8.32e-07 M
